The values below are quoted from earlier work in patent US20130078290A1, “Gastroretentive Dosage Forms Of GABA Analogs” (Rubicon Research Private Limited, priority 2010, published 2013).

The structures appear in SMILES notation.

The conditions of data set [1]: for Elimination half-life: in vivo.
For data set [2] the following is noted: in water and in acidic and basic aqueous solutions.

On to `CC(C)CC(CN)CC(=O)O` (centres unmarked) [pregabalin, 5-methyl-3-aminomethyl-hexanoic acid], for which the Elimination half-life entry in data set [1] is “about 6.3 hours”. The Solubility entry in data set [2] is reported as “freely soluble”.

On to `NCC1(CC(=O)O)CCCCC1` [gabapentin, 1-(Aminomethyl)cyclohexaneacetic acid], for which the Oral bioavailability result in data set [1] (dose in range of 300-400 mg) was “approximately 60%”. For the same molecule, the Elimination half-life in data set [1] was 5 to 7 h. Moreover, in data set [2], the Solubility result is reported as “freely soluble”.
